Data from ChEMBL document CHEMBL1126341, “Synthesis of stereoisomers of 1,4:3,6-dianhydrohexitol nitrate derivative, KF-14124” (1992).

Tests used:
Format in all cases: functional
[1] = species: Canis familiaris; assay: Minimum effective dose in propanol induced heart failure in left ventricular end diastolic pressure model of dog when dose given intradermally; settings: Canis lupus familiaris, Heart left ventricle; read-out: MED
[2] = test system: Rattus norvegicus; assay: Compound was tested for inhibition of T-wave elevation in lysine-Vasopressin -Induced-Angina Pectoris model in rats when administered perorally; settings: po, read-out: MED
[3] = test system: Rattus norvegicus; assay: Compound was tested for inhibition of T-wave elevation in lysine-Vasopressin -Induced-Angina Pectoris model in rats when administered intraperitoneally.; settings: for minimal effective dose: Rattus norvegicus, ip, read-out: MED
[4] = species: Canis familiaris; assay: Minimum effective dose in […] induced heart failure in left ventricular end diastolic pressure model of dog; settings: Canis lupus familiaris, Heart left ventricle; read-out: MED

Structure (SMILES) | minimal effective dose [2] [mg/kg] | minimal effective dose [3] [mg/kg] | also measured
O=[N+]([O-])O[C@H]1CO[C@@H]2C(N3CCN(CCCSc4ccccc4)CC3)CO[C@H]12 (single isomer, unassigned) | 10 | 12.5 | minimal effective dose [1]: 0.1 mg/kg
O=[N+]([O-])O[C@H]1CO[C@H]2[C@@H]1OC[C@H]2N1CCN(CCCSc2ccccc2)CC1 | – | – | MED [3]: >25 mg/kg
O=[N+]([O-])O[C@@H]1CO[C@H]2[C@@H]1OC[C@H]2N1CCN(CCCSc2ccccc2)CC1 | – | > 25 | –
O=[N+]([O-])O[C@@H]1CO[C@H]2[C@@H]1OC[C@@H]2N1CCN(CCCSc2ccccc2)CC1 | > 30 | > 25 | –
O=[N+]([O-])O[C@H]1CO[C@H]2[C@@H]1OC[C@H]2O[N+](=O)[O-] [ISOSORBIDE DINITRATE] | – | – | minimal effective dose [4]: > 0.3 mg/kg
